What all share (type): cell-based
Assay [1] concerns the target T1, GlyT2 L569F mutant (Homo sapiens, UniProt Q9Y345, L569F).
T1 construct: expressed in transfected cells; host or cells: Xenopus laevis oocytes (cRNA injection)
T1 sequence (Q9Y345 1-797 L569F): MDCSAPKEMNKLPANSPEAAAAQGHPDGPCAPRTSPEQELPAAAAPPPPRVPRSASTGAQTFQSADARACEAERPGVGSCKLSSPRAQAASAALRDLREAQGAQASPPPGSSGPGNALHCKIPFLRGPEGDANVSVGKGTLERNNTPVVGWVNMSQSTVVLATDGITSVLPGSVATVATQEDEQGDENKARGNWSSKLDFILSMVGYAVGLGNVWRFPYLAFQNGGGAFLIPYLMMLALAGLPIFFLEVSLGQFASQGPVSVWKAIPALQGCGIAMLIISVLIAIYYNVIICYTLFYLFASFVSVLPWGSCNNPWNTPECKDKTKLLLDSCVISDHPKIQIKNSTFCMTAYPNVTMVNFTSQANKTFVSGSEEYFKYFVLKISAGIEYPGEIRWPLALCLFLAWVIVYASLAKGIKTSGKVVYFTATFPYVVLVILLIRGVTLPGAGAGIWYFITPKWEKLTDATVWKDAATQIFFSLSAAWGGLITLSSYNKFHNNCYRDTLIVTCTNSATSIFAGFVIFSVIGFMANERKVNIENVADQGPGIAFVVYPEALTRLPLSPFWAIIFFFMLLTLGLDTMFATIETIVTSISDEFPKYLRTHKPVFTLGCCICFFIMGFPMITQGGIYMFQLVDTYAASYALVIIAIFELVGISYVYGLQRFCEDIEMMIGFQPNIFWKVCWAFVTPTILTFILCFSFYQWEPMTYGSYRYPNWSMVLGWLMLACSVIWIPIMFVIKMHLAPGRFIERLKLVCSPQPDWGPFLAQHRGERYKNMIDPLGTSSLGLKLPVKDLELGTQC
Description: Glycine transport currents, two electrode voltage clamp, oocytes expressing GlyT2 L569F. The following applies: for % Max. inhibition: mean ± SEM. Here is the method:
(§1) Glycine was first applied to establish maximal transport current.
(§2) Compounds were tested for inhibition of glycine transport on Xenopus laevis oocytes expressing mutant GlyT1 and GlyT2 transporters. n values are in brackets, with measurements taken from at least 2 batches of oocytes.

The target in assay [2] is T2, GlyT2 V432A mutant (Homo sapiens, UniProt Q9Y345, V432A).
T2 construct: expressed in transfected cells; host or cells: Xenopus laevis oocytes (cRNA injection)
T2 sequence (Q9Y345 1-797 V432A): T1 sequence (Q9Y345 1-797 L569F) with V432A, F569L
Description: Glycine transport currents, two electrode voltage clamp, oocytes expressing GlyT2 V432A. Particulars: for % Max. inhibition: mean ± SEM. Here is the method: as §1, §2

In assay [3] the target is T3, GlyT2 F428A mutant (Homo sapiens, UniProt Q9Y345, F428A).
T3 construct: expressed in transfected cells; host or cells: Xenopus laevis oocytes (cRNA injection)
T3 sequence (Q9Y345 1-797 F428A): T1 sequence (Q9Y345 1-797 L569F) with F428A, F569L
The assay is described as follows: Glycine transport currents, two electrode voltage clamp, oocytes expressing GlyT2 F428A. The following applies: for % Max. inhibition (% inhibition at the highest concentration of inhibitor used): footnote b. On the procedure: as §1, §2

Setting [4] is: GlyT2 V432A, greater than maximum concentration applied (footnote a).

Each structure is given as a SMILES string. Changes are numbered by the printed parent chain. A value given as a limit tells only on which side of the number the result lay.

Take `NCC(=O)O` [Glycine]: the EC50 in assay [1] (glycine transport, GlyT2 L569F (TM8)) is 7 ± 0.6 µM; in assay [2] (glycine transport, GlyT2 V432A (TM5)), 114 ± 21.6 µM; in assay [3] (glycine transport, GlyT2 F428A (TM5)) it was 6.2 ± 0.4 µM.

`CCCCC/C=C\C/C=C\C/C=C\C/C=C\CCCC(=O)NCC(=O)O` [N-arachidonyl Glycine, reference compound]: the IC50 was 3.59 µM in assay [1] (GlyT2 L569F, mean (95% CI)); more than 10 µM in assay [2] (setting [4]); 14.4 µM in assay [3] (GlyT2 F428A, mean (95% CI)). Moreover, the “% Max. inhibition” value in assay [1] (GlyT2 L569F) is reported as 63.7 ± 19.0 (p=0.9990) %; in assay [2] (GlyT2 V432A), 4.2 ± 3.2 (p=0.0018) %. Moreover, the “% Max. inhibition (% inhibition at the highest concentration of inhibitor used)” value in assay [3] (GlyT2 F428A) is listed as 64.7 ± 6.6^b (p=0.9998) %.

`CCCCCCCC/C=C\CCCCCCCC(=O)NCC(=O)O` [N-oleoyl Glycine, reference compound]: the IC50 is more than 10 µM in assay [1] (GlyT2 L569F, greater than maximum concentration applied (footnote a)); more than 10 µM in assay [2] (setting [4]); more than 10 µM in assay [3] (GlyT2 F428A). In addition, the “% Max. inhibition” value was 32.5 ± 3.6 (p=0.0005) % in assay [1] (GlyT2 L569F) and 25.4 ± 4.9 (p=0.0001) % in assay [3] (GlyT2 F428A, mean ± SEM). In addition, the “% Max. inhibition (% inhibition at the highest concentration of inhibitor used)” value in assay [2] (GlyT2 V432A, footnote b) is recorded as 1.9 ± 3.2^b (p=0.0001) %.

For `CCCCCCCC/C=C\CCCCCCCC(=O)O[C@H](CC(=O)[O-])C[N+](C)(C)C` [oleoyl L-Carnitine, reference compound], the “% Max. inhibition (% inhibition at the highest concentration of inhibitor used)” value in assay [1] (GlyT2 L569F, footnote b) was 45.5 ± 7.0^b (p=0.0038) %; in assay [3] (GlyT2 F428A), 22.7 ± 3.0^b (p=0.0001) %. Also, the IC50 in assay [1] (GlyT2 L569F, mean (95% CI)) was 1.2 µM; in assay [2] (setting [4]) it was more than 3 µM; in assay [3] (GlyT2 F428A), more than 3 µM. Further, in assay [2] (GlyT2 V432A), the “% Max. inhibition” value is on record as 6.0 ± 3.2 (p=0.0001) %.

For the compound `CCCCCCCC/C=C\CCCCCCCC(=O)N[C@@H](CCCCN)C(=O)O` [oleoyl l-Lysine], the IC50 in assay [1] (GlyT2 L569F, mean (95% CI)) is 0.301 µM; in assay [2] (GlyT2 V432A, mean (95% CI)) it was 0.0684 µM; in assay [3] (GlyT2 F428A), more than 3 µM. Besides, the “% Max. inhibition” value in assay [1] (GlyT2 L569F) is on record as 76.8 ± 5.8 (p=0.4504) %; in assay [2] (GlyT2 V432A) it was 71.9 ± 1.9 (p=0.0001) %. Further, the “% Max. inhibition (% inhibition at the highest concentration of inhibitor used)” value in assay [3] (GlyT2 F428A) is reported as 39.2 ± 2.3^b (p=0.0001) %.
